pIC50: −log10 of the molar value.
biological target: Induced myeloid leukemia cell differentiation protein Mcl-1 (Homo sapiens) (UniProt Q07820); experiment: Mcl-1 Noxa peptide disruption concentration-response – biochemical, TR-FRET, dose response (AID 1417); conditions: Mcl-1/Noxa peptide interaction, cell-free TR-FRET (terbium/rhodamine), 2 h; measured here: absolute IC50
Sequence (Q07820 whole entry, looked up): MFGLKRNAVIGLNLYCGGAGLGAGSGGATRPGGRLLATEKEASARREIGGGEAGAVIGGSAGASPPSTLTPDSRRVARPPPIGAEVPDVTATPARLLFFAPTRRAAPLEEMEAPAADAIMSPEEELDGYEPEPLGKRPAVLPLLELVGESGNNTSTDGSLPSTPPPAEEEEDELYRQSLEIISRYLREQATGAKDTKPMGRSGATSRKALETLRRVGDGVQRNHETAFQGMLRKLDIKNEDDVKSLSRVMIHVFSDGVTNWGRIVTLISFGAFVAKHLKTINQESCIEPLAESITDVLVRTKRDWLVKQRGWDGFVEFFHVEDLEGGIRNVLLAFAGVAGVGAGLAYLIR

Point of comparison: `Cc1cc(C)c2c(c1)C1C=CCC1C(c1ccc(S(=O)(=O)N3CCOCC3)cc1)N2` (centres undefined), pIC50 5.69. Against it:
- CCN(c1ccc(NC(=O)COC(=O)c2ccc(C)c(S(=O)(=O)N3CCOCC3)c2)cc1)C(C)C — lower, < 4.27
- CCOc1ccc(C2C3=C(Nc4nc(N)[nH]c(=O)c42)c2ccccc2C3=O)cc1 (centres undefined) — 1.06 log units lower, 4.63
- Nc1ccc(C2=Nc3cccc4cccc(c34)N2)cc1 — higher, > 6.40
- CC1CC1C(=O)OCC(=O)Nc1ccc2[nH]c(=O)[nH]c2c1 (centres undefined) — 0.33 log units lower, 5.36
- CN(C)c1ccc(Sc2nnc(NC(=O)Nc3ccc(Cl)cc3Cl)s2)cc1 — 0.23 log units lower, 5.46
- CN1CCc2cccc3c2[C@H]1Cc1ccc(O)c(O)c1-3 — higher, > 6.40
- Cc1cc(C)c(S(=O)(=O)/N=C2/C=C(SCC(=O)O)C(=O)c3ccccc32)cc1C — higher, > 6.40
- O=C(Nc1ccc([N+](=O)[O-])cc1)Nc1nc(-c2ccc(Cl)s2)cs1 — within 0.2 log units, 5.74
- Oc1ccc(/C=N/N=C(c2ccccc2)c2ccccc2)c(O)c1O — higher, > 6.40
- O=C(O)CCn1cc(C=C2C(=O)NC(=S)NC2=O)c(-c2cccc(Cl)c2)n1 — within 0.2 log units, 5.74
- Cn1cc(C(=O)N/N=C/c2ccc([N+](=O)[O-])cc2)c2ccccc21 — within 0.2 log units, 5.52
- CC1=NN(c2ccccc2)C(=O)/C1=C/c1c(O)n(-c2ccc(F)c(Cl)c2)[nH]c1=O — 0.37 log units lower, 5.32
- CN(C)c1ccc(NC(=O)/C=C/c2ccccc2Cl)cc1 — higher, > 6.40
- CC(=O)c1sc2nc(CSc3nnnn3-c3ccccc3)[nH]c(=O)c2c1C — 0.34 log units higher, 6.03
- COc1cc(/C=C2/SC(=O)NC2=O)ccc1Oc1ccc([N+](=O)[O-])cc1[N+](=O)[O-] — 0.31 log units lower, 5.38
- COc1cc(/C=C(/NC(C)=O)C(=O)O)cc(Cl)c1OCc1ccc(Br)cc1 — lower, < 4.27
- Cc1ccc(/C=C2\SC(=S)N(/N=C/c3cc([N+](=O)[O-])ccc3O)C2=O)o1 — higher, > 6.40
- CC1CC(=O)c2c(cc3c(-c4c(O)cc(O)c5c(O)c6c(cc45)OC(C)CC6=O)c(O)cc(O)c3c2O)O1 (centres undefined) — higher, > 6.40
- O=C(CSc1cccc[n+]1[O-])Nc1cc2c(cc1Cl)C(=O)c1ccccc1C2=O — 0.26 log units lower, 5.43
- O=C(COC(=O)c1c2c(nc3ccccc13)/C(=C/c1ccco1)CC2)NC1CCCC1 — within 0.2 log units, 5.63
- O=C(NN1C(=O)/C(=C/C=C/c2ccco2)SC1=S)c1ccccc1O — 0.31 log units higher, 6.00
- O=C(O)CCCN1C(=O)/C(=C/c2cn(-c3ccccc3)nc2-c2cccs2)SC1=S — within 0.2 log units, 5.81
- COc1ccc(NC(=O)CSc2ncnc3c2sc2ccccc23)c(OC)c1 — lower, < 4.27
- O=C(O)c1cc(-c2ccc(/C=C3\NC(=O)N(c4ccccc4)C3=O)o2)ccc1Cl — lower, < 4.27
- CCC(C)N1C(=O)/C(=C/c2ccc3c(c2)CCN3CCCCl)C(=O)NC1=S (centres undefined) — within 0.2 log units, 5.72
- Cc1cc(C(=O)N/N=C/c2cc(N=Nc3ccccc3)ccc2O)n[nH]1 — 0.73 log units lower, 4.96
- O=C(CSc1nnc(SCc2ccccc2)s1)N/N=C/C=C/c1ccco1 — 0.38 log units lower, 5.31
- Oc1ccc(N2CCN(c3ncnc4sc5c(c34)CCC5)CC2)cc1 — 0.51 log units lower, 5.18
- CC1(C)CC(=O)C(C=Nc2cccc(/N=C/C3=C(O)CC(C)(C)CC3=O)n2)=C(O)C1 — lower, < 4.27
- O=C(Nc1ccc2c(c1)nc1n2CCN(C2CCCCC2)C1)c1ccco1 — 0.68 log units lower, 5.01
- O=C(Nc1cccc(Oc2ccc(C(=O)O)c(C(=O)O)c2)c1)c1ccc(-c2ccccc2)cc1 — 0.25 log units lower, 5.44
- O=c1c2c3c(sc2[nH]c(=S)n1Cc1ccco1)CCC3 — within 0.2 log units, 5.85
- CCCCCCCCCCCCCCCC[n+]1cccc2ccccc21 — 0.42 log units lower, 5.27
- O/N=C1/CCCSc2ccccc21 — lower, < 4.27
- COc1ccc(-c2ccc(/C=C3/C(=N)N4C=CSC4=NC3=O)o2)c([N+](=O)[O-])c1 — within 0.2 log units, 5.78
- Cc1ccc(NC(=O)CSc2nnc(-c3ccco3)c(-c3ccco3)n2)cc1 — 0.21 log units lower, 5.48
- Cc1cc(/C=N/n2c(COc3ccccc3C)nc3ccccc3c2=O)c(O)c([N+](=O)[O-])c1 — 0.38 log units lower, 5.31
- Cc1c(Cc2ccccc2)c(=O)oc2c(O)c(O)ccc12 — 1.22 log units lower, 4.47
- O=C1C2C3C=CC(C2C(=O)N1c1cccc(O)c1)C1C2C(=O)N(c4cccc(O)c4)C(=O)C2C31 (centres undefined) — lower, < 4.27
- COc1cc(/C=C(\C#N)c2nc3ccccc3s2)cc([N+](=O)[O-])c1O — 0.22 log units lower, 5.47
- CCC1CCCCN1S(=O)(=O)c1ccc(S(=O)(=O)N(Cc2ccccn2)CC2CCCO2)cc1 (centres undefined) — lower, < 4.27
- COc1ccc2[nH]c3c(=O)n(Cc4ccc(C(=O)N5CCCC5)cc4)c(=S)[nH]c3c2c1 — lower, < 4.27
- O=C1c2ccc([N+](=O)[O-])cc2NC(c2ccco2)N1/N=C/c1ccco1 (centres undefined) — lower, < 4.27
- Cc1cccc(NC(=O)CSc2nnc(-c3ccco3)c(-c3ccco3)n2)c1 — 0.51 log units lower, 5.18
- CCc1n[nH]c(=S)n1/N=C/c1cc(OC)cc([N+](=O)[O-])c1O — higher, > 6.40
- CC(C)(C)C1CCc2c(C(=O)NNC(=O)CCC(=O)O)csc2C1 (centres undefined) — lower, < 4.27
- CN1C(=O)/C(=C/c2ccc(-c3ccccc3[N+](=O)[O-])o2)SC1=Nc1ccc(Cl)c(C(=O)O)c1 — higher, > 6.40
- COC(=O)CSc1ncnc2c1sc1nc(-c3ccco3)c3c(c12)CC(C)(C)OC3 — 0.24 log units lower, 5.45
- CCc1ccc(S(=O)(=O)/N=C2/C=C(Sc3ncn[nH]3)C(=O)c3ccccc32)cc1 — higher, > 6.40
- Cc1nc(COC(=O)c2cc(O)c3ccccc3c2O)cs1 — higher, > 6.40
- O=C1/C(=C/c2ccccn2)SC(=S)N1c1ccc(O)cc1 — 0.61 log units lower, 5.08
- CCOc1ccc(C(=O)Nc2cc(NC(=O)c3ccc(OCC)c(Cl)c3)cc(C(=O)O)c2)cc1Cl — 0.91 log units lower, 4.78
- O=C(O)CCCN1C(=O)/C(=C\c2ccc(-c3nc4ccccc4s3)o2)SC1=S — 0.26 log units higher, 5.95
- O=C(CN1C(=O)/C(=C2\SC(=S)N(C3CCS(=O)(=O)C3)C2=O)c2ccccc21)Nc1ccc(F)cc1 (centres undefined) — within 0.2 log units, 5.68
- COc1ccccc1NC1=C(NC(C)=O)C(=O)c2ccccc2C1=O — within 0.2 log units, 5.61
- O=C(COc1ccc2ccccc2c1)NNC(=O)c1ccc([N+](=O)[O-])cc1 — 0.62 log units lower, 5.07
- O=C1NN(c2ccc(Cl)c(Cl)c2)C(=O)/C1=C/c1cccc(OC(=O)c2cccs2)c1 — 0.31 log units lower, 5.38
- COC(=O)c1cc(O)cc(OC)c1Oc1cc(C)cc(O)c1C(=O)O — lower, < 4.27
- O=C1NC(=S)S/C1=C\c1ccc(SCc2ccco2)o1 — higher, > 6.40
- CC1=C(C(=O)OCC(C)C)C(c2ccsc2)NC(=O)N1 (centres undefined) — lower, < 4.27
- CCCCc1[nH]nc2c1C1(C(=O)N(CC)c3ccccc31)C(C#N)=C(N)O2 (centres undefined) — lower, < 4.27
- Cc1ccc(-n2cccc2/C=C2/C(=N)N3C(=NC2=O)SN=C3S(C)(=O)=O)cc1 — 0.42 log units lower, 5.27
- CCN(CC)S(=O)(=O)c1ccc(N2CCOCC2)c(NC(=O)c2c3c(nc4ccccc24)CCC3)c1 — 0.45 log units lower, 5.24
- COC(=O)c1cc(-c2ccc(C)o2)nc2ccccc12 — 0.86 log units lower, 4.83
- O=C1/C(=C/c2ccc(O)c(O)c2)Oc2cc(O)ccc21 — 0.25 log units higher, 5.94
- CCOC(=O)c1sc2nc3c(SCCC(=O)O)cc(C(=O)c4cc(OC)ccc4O)cn3c(=O)c2c1C — 0.33 log units higher, 6.02
- CCOc1ccccc1NC(=O)/C=C/C(N)=O — lower, < 4.27
- CCN(CC)C(=O)CC(c1cc(OC)c(OC)c(OC)c1)c1c(OC)cc(OC)c2c(-c3ccccc3)cc(=O)oc12 (centres undefined) — 0.30 log units lower, 5.39
- O=C(Nc1ccc2nc3ccccc3nc2c1)c1ccccc1 — 1.16 log units lower, 4.53
- O=[N+]([O-])c1ccc(N/N=C/c2ccc(O)c(O)c2O)c(S(=O)(=O)N2CCOCC2)c1 — higher, > 6.40
- CC1CCN(c2ccc(NC(=O)Cc3ccccc3)cc2)CC1 — lower, < 4.27
- Cc1ccc(N=C2NC(=O)S/C2=C\c2ccco2)cc1 — 0.62 log units lower, 5.07
- CCS(=O)(=O)C1=NN2C(=N)/C(=C\c3ccc(SCc4ccco4)o3)C(=O)N=C2S1 — within 0.2 log units, 5.84
- O=C(/C=C/c1ccccc1)c1ccc(NC2=NCCCS2)cc1 — 0.50 log units lower, 5.19
- [O-][n+]1onc2c1CCC(=N/O)/C2=N\Nc1ccccc1 — 0.28 log units higher, 5.97
- CC(=O)N(C1=C(Cl)C(=O)c2ccccc2C1=O)C1CCCCC1 — higher, > 6.40
- Cc1ccc(-n2cccc2/C=C2/C(=N)N3C(=NC2=O)SN=C3S(C)(=O)=O)cc1Cl — 0.27 log units higher, 5.96
- O=C(CSc1n[nH]c(=O)[nH]c1=O)Nc1ccc2c(c1)C(=O)c1ccccc1C2=O — lower, < 4.27
- Cc1[nH]c2ccccc2c1/C=N/Nc1ccc([N+](=O)[O-])cc1 — 0.43 log units higher, 6.12
- N#C/C(=C\c1ccc(C(=O)O)cc1)c1nc2sc3c(c2c(=O)[nH]1)CCCC3 — within 0.2 log units, 5.53
- CCOC(=O)c1c(NC(C)=O)sc2c(O)c(Br)cc(Br)c12 — 0.62 log units lower, 5.07
- O=[N+]([O-])c1cc(Cl)cc(/C=N/NC(=S)Nc2ccc(S(=O)(=O)N3CCOCC3)cc2)c1O — higher, > 6.40
- Oc1nc(Nc2ccc(F)cc2)sc1/C=C1\C=Nc2ccccc21 — 0.33 log units lower, 5.36
- COc1cccc(C(Nc2ccccn2)c2oc(CO)cc(=O)c2O)c1 (centres undefined) — higher, > 6.40
- CCN(CC)S(=O)(=O)c1cc(NC(=O)Cn2ncc(Cl)c(Cl)c2=O)ccc1C — 0.20 log units lower, 5.49
- COc1ccc(-c2ccc(/C=N/NC(=O)c3cccnc3)o2)c([N+](=O)[O-])c1 — 0.33 log units lower, 5.36
- CC1CCc2c(sc(Nc3nc4c(F)cccc4s3)c2C(N)=O)C1 (centres undefined) — higher, > 6.40
- CCN(CC)c1ccc(NC(=O)CCNC(=O)c2ccco2)cc1 — lower, < 4.27
- COc1ccc(N/C=C2\C(=O)CCc3c2oc2cc(Cl)c(O)c(Cl)c32)cc1 — 0.40 log units lower, 5.29
- CSc1nc(NCCOCCO)c2sc3nc(-c4ccco4)c4c(c3c2n1)CCC4 — higher, > 6.40
- CC(=O)C1=C(S(=O)(=O)c2ccc(C)cc2)CS(=O)(=O)C1 — higher, > 6.40
- O=C(Nc1ccc(Cl)cc1)Nc1nnc(/C=C/c2ccccc2)s1 — 0.30 log units lower, 5.39
- O=c1/c(=C/c2ccc(O)c([N+](=O)[O-])c2)sc2nc3ccccc3n12 — 0.32 log units lower, 5.37
- Cn1c(=O)c(C(=O)COC(=O)c2cc(-c3ccco3)nc3ccccc23)c(N)n(CC2CC2)c1=O — 0.66 log units higher, 6.35
- CN(C)c1ccc(NC(=O)c2cn(-c3ccccc3)nc2-c2cccs2)cc1 — lower, < 4.27
- Nc1ccc(N2CCCCC2)cc1N1CCCCC1 — lower, < 4.27
- Cc1ccc(-c2nnc3ccc(SC(C)C(=O)O)nn23)cc1 (centres undefined) — 0.36 log units lower, 5.33
- CC1CCCCC12NC(=O)N(CC(=O)Nc1sc3c(c1C(N)=O)CCC3)C2=O (centres undefined) — 0.29 log units lower, 5.40
- O=C1NC(=S)S/C1=C\C=C\c1ccc([N+](=O)[O-])o1 — higher, > 6.40
- CSCc1nc2sc(C(=O)Nc3nc(C)cs3)c(C)c2c(=O)[nH]1 — 0.30 log units lower, 5.39
- O=C(O)c1cccc(Cn2c(Cl)c(/C=N/NC(=O)c3cc4ccccc4cc3O)sc2=O)c1 — 0.22 log units lower, 5.47
- CCC1CSC(Nc2ccc(C(=O)/C=C/c3cccc(C)c3)cc2)=N1 (centres undefined) — higher, > 6.40
- COc1ccc2nc(N3C(=O)/C(=C/c4ccc(Cl)cc4)NC3=S)sc2c1 — within 0.2 log units, 5.85

From PubChem BioAssay AID1417 (Emory University Molecular Libraries Screening Center, 2008)
